Columns and labels:
[1] = target: T1, engineered chimeric LGIC receptor SEQ ID NO:33 (α7-nAChR ligand binding domain with GlyRα1 Cys-loop, GlyRα1 ion pore domain) (Homo sapiens, UniProt P36544, F159M/H163T/I152M/R155K/V154L/W156N/Y151P); assay: Two electrode voltage clamp currents in Xenopus oocytes expressing the receptor; type: cell-based
T1 construct: expressed in transfected cells; host or cells: Xenopus oocytes (cDNA injection)
Protocol: (§1) For Xenopus oocyte studies, injections of cDNAs encoding for ion channels at a final concentration of 0.04 μg/μL were performed using a proprietary automated injection device and receptor expression examined at least two days later. Oocytes were poked with two electrodes and their membrane potential maintained at −80 mV throughout the experiment. All recordings were performed at 18° C. and cells were superfused with OR2 medium containing in mM: NaCl 82.5, KCl 2.5, HEPES 5, CaCl2.2H2O 1.8, MgCl2.6H2O 1, pH 7.4. Recordings progressed if oocytes had sufficiently low holding current, in which case they were then subjected to ligand or test compound application (5-10 s wash intervals), with 100 s of wash in between doses. Currents evoked by acetylcholine or other agonists were recorded using an automated process equipped with standard two electrode voltage clamp configuration (TEVC). Data were captured and analyzed using HiQScreen proprietary data acquisition and analysis software running under Matlab (Mathworks Inc.). Acetylcholine was prepared as a concentrated stock solution (10-1 M) in water and then diluted in the recording medium to obtain the desired test concentration. Nicotine was diluted in water as stock solution (10-1 M), kept frozen and diluted immediately prior to the experiment at the desired concentration. Compounds were prepared as stock solution (10-1M) in OR2 and then diluted in the recording medium to obtain the desired test concentration. Stock solution for Compound-1 was made in OR2 at pH 5 adjusted with HCl. To assess that dilution at the final concentration of this stock solution introduced no significant changes, the pH of the final solution was confirmed using a colorimetric assay (Galietta L. J. V., et al. 2001. FEBS Letters 499: 220-224. Kruger W., et al. (2005). Neuroscience Letters 380: 340-345.)
(§2) To better understand the impact of the heterologous domains that had been inserted into the channels, the ligand-dependent response profiles of wild type α7-nAChR and various engineered chimeric LGIC receptors to acetylcholine as well as to non-native ligands TC-6987, AZD-0328, and Facinicline/RG3487 were assessed. Receptors were transiently expressed in […] cells and currents were measured on an automated patch clamp system (Fluxion Biosciences) following 1 second addition of drug. Inclusion of a GlyRα1 Cys-loop sequence in the extracellular domain increased the potency of all small molecules on the engineered receptor (leftward shift in EC50) (e.g. SEQ ID NO:35, FIG. 4C vs SEQ ID NO:16, FIG. 4B). […] Inclusion of both the Cys-loop and β1-β2 loop sequences of GlyRα1 in the extracellular domain reduced the sensitivity by about 1 log from that observed with the full Cys-loop sequence alone, but further increased conductance approximately 2-fold and slowed the rate of deactivation of the channel (SEQ ID NO:41, FIG. 4E vs. SEQ ID NO:33, FIG. 4D).

[2] = target: T2, engineered chimeric LGIC receptor SEQ ID NO:41 (as SEQ ID NO:33, further comprising the β1-β2 loop domain from GlyRα1) (Homo sapiens, UniProt P36544, F159M/H163T/I152M/K68T/N69T/Q70M/R155K/V154L/W156N/Y151P); assay: as above; type: cell-based; settings: FIG. 5
T2 construct: expressed in transfected cells; host or cells: Xenopus oocytes (cDNA injection)
Protocol: as §1, §2

[3] = test system: spared nerve injury (SNI) model; assay: Spared nerve injury (SNI) model of neuropathic pain, mechanical withdrawal threshold (von Frey, up-down method) after AAV.hSYN-α7-nAChR/GlyRα1 injection; type: in vivo, rat; settings: single IP injection
Excerpt: Eight expression cassettes are constructed using standard molecular biology techniques. All contain a human synapsin-1 (hSYN) promoter linked to engineered chimeric receptors comprising a ligand binding domain of α7-nAChR and a Cys-loop domain and ion pore domain of GlyRα1. Their design is as follows:
These cassettes are subcloned into AAV bacmids, purified, transfected into Sf9 insect cells to produce recombinant bacuvlovirus, and then amplified. Sf9 cells are double infected using the amplified recombinant baculovirus containing the hSYN-α7-nAChR/GlyRα1 cassettes and another recombinant baculovirus containing the Rep and AAV6(Y705+731F+T492V) Cap genes to produce recombinant AAV vectors. The viral vectors are purified, viral titer determined using qPCR, and SDS-PAGE used to verify the purity of AAV vectors.
To produce mechanical hypersensitivity in a model that mimics a neuropathic pain condition, the spared nerve injury (SNI) model (a validated model of mechanical allodynia) is used (Shields et al., 2003, The Journal of Pain, 4, 465-470). This model is produced by the sectioning of the common peroneal and the sural nerves and isolating the tibial branch. Mechanical withdrawal threshold is assessed by placing rats on an elevated wire-mesh grid and stimulating the plantar surface of the hind paw with von Frey filaments.
A dorsal hemilaminectomy is made at the level of the lumbar enlargement to expose two segments (about 1.5-2 mm) of lumbar spinal cord, after which the dura mater is incised and reflected. The viral solution is loaded into a glass micropipette (prefilled with mineral oil). The micropipette is connected to a manual micro-injector mounted on a stereotactic apparatus. The viral solution is targeted to the dorsal horn (left side). Along the rostro-caudal axis within the exposed region, 6 injections of 240 nl each are performed, in an equidistant linear fashion. After each injection, 1 min of resting time is observed and then the muscle layer is sutured, the skin closed with staples, and the animals were allowed to recover with heated-pad before they were returned to their home cages. Animals are perfused for histological analysis after the last behavior test.
The injection is performed with a borosilicate glass capillary (0.78/1 mm internal/external diameters) pulled to a fine point, attached by polyethylene tubing (0.4/0.8 mm internal/external diameters) to a syringe mounted in a microinjection pump. The needle is mounted on an extended arm of a stereotaxic frame swung to the outside (used to hold and manipulate the needle only). Tubing, syringe, and needle are all filled with water. One microliter air is taken up into the needle followed by 3 μL of the viral vector solution. The needle is loaded separately with this volume for each injection. Animals are anesthetized prior to surgery. Following an incision along the dorsal midline, the L4 and L5 DRG are exposed by removal of the lateral processes of the vertebrae. The epineurium lying over the DRG is opened, and the glass needle inserted into the ganglion, to a depth of 400 μm from the surface of the exposed ganglion. After a 3-minute delay to allow sealing of the tissue around the glass capillary tip, 1.1 μL virus solution was injected at a rate of 0.2 μL/minute. After a further delay of 2 minutes, the needle is removed. The L4 ganglion is injected first followed by the L5 ganglion. The muscles overlying the spinal cord are loosely sutured together with a 5-0 suture and the wound closed. Animals are allowed to recover at 37° C. and received postoperative analgesia.
Rats are first anesthetized and then placed vertically with their head fixed in a stereotaxic frame. An incision is made in the base of the neck to expose the groove in the nuchal crest. An incision is made (1-2 mm) in the cisternal membrane to a depth such that cerebrospinal fluid leaks out. […]

T1 sequence (P36544 with tags, fused parts or gaps Y151P/I152M/V154L/R155K/W156N/F159M/H163T): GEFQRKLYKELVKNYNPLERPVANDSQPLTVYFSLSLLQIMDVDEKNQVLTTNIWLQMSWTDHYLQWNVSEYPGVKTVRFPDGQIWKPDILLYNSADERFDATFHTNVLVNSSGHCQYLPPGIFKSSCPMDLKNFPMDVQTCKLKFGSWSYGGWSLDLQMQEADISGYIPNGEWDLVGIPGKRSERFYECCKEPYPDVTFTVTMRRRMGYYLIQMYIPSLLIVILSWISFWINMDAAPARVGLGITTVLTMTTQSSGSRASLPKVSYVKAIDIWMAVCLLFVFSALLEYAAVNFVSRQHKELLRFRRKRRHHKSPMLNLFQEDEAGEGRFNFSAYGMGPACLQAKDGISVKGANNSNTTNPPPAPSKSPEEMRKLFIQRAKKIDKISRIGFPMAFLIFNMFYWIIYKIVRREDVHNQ
T2 sequence (P36544 with tags, fused parts or gaps K68T/N69T/Q70M/Y151P/I152M/V154L/R155K/W156N/F159M/H163T): as the sequence (P36544 with tags, fused parts or gaps Y151P/I152M/V154L/R155K/W156N/F159M/H163T) above, with K46T, N47T, Q48M counted along it

Structure (SMILES): c1ccc(-c2nnc(O[C@@H]3C4CC5C[C@H]3CN(C5)C4)s2)cc1 [ABT-126]
- sensitivity of SEQ ID NO:33 to ligand compared with wild type α7-nAChR ([1]; Xenopus oocytes, FIG. 5): approximately as sensitive
- sensitivity of SEQ ID NO:41 to ligand compared with wild type α7-nAChR [2]: comparably sensitive

Structure (SMILES): O=C(N[C@@H]1CN2CCC1CC2)c1n[nH]c2ccccc12 [Facinicline/RG3487]
- fold more sensitive than wild type α7-nAChR ([1]; Xenopus oocytes, FIG. 5): ~10 fold
- EC50 on SEQ ID NO:41 fold lower (left shifted) than for wild type [2]: approximately 2 fold
- sensitivity of SEQ ID NO:41 compared with SEQ ID NO:33 [2]: less sensitive
- reversal of mechanical hypersensitivity ([3]; high dose of ligand, all rats (Chimera 1-8)): complete reversal
- reversal of mechanical hypersensitivity ([3]; low dose, rats receiving Chimera 1, 2, 4, 5, 6 and 8): complete reversal
- reversal of mechanical hypersensitivity ([3]; low dose, rats receiving Chimera 3 and 7): partial reversal

Structure (SMILES): O=C(N[C@@H]1C2CCN(CC2)[C@H]1Cc1cccnc1)c1cc(F)cc(F)c1 [TC-6987]
- sensitivity of SEQ ID NO:33 to ligand compared with wild type α7-nAChR ([1]; Xenopus oocytes, FIG. 5): approximately as sensitive
- agonist activity on SEQ ID NO:33 ([1]; similar to wild type): partial agonist activity
- sensitivity of SEQ ID NO:41 to ligand compared with wild type α7-nAChR [2]: comparably sensitive

Structure (SMILES): CN1CCCC1c1cccnc1 (stereo not shown) [nicotine]
- fold less sensitive than wild type α7-nAChR ([1]; Xenopus oocytes, FIG. 5): approximately 2 fold
- EC50 on SEQ ID NO:41 fold larger (right shifted) than for wild type [2]: ~7 fold

— US10538571B2, “Compositions and methods for neurological diseases” (Coda Biotherapeutics, Inc., priority 2017, dated 2020)
